Measured values published in publication PMC6248945, “Antibacterial properties of the pituitary adenylate cyclase-activating polypeptide: A new human antimicrobial peptide” (PLoS ONE, 2018).
Converted amounts (≈) assume the structure as drawn. Like-named read-outs stand apart in the source and are kept apart here. Where a SMILES comes first, the peptide text is derived from it.

Key:
[1] = tested on: Bacillus amyloliquefaciens (LMG22478); settings: LMG22478, 20 h
[2] = tested on: Burkholderia cenocepacia (J2315); settings: 20 h
Bacillus velezensis = settings: 20 h
[3] = tested on: Escherichia coli ATCC25922; settings: ATCC25922, 20 h
[4] = tested on: Escherichia coli (O157 :H7); settings: CLSI microdilution, MHB, 37 °C, 20h, OD read-out; at least triplicate
Bacillus subtilis (PY79) = settings: PY79, 20 h
[5] = tested on: Pseudomonas putida (KT2440); settings: 20 h
[6] = tested on: Staphylococcus aureus (ATCC6538#P); settings: ATCC6538, 20 h
[7] = tested on: Burkholderia cenocepacia (CEP0511 Gvar3b); settings: CLSI microdilution, MHB, 37 °C, 20h, OD read-out; at least triplicate
[8] = tested on: Burkholderia cenocepacia (LMG18829); settings: LMG18829, 20 h
[9] = tested on: Bacillus cereus (ATCC11778); settings: ATCC11778, 20 h
Escherichia coli (JM109) = assay: MIC, CLSI microdilution; type: cell-based; settings: MHB, 37 °C, 20h, OD read-out, at least triplicate
Red blood cells = assay: Haemolytic activity; type: cell-based; settings: human red blood cells in PBS, 30 min or 3h, 37°C; at 45 μg/mL (PACAP38) or 37 μg/mL (PACAP(9–38)); absorbance 545 nm; 3 independent experiments in triplicate
Experimental: All experimental procedures were performed in accordance with regulations and ethical guidelines and approved by the institutional committee of the Institut National de la Recherche Scientifique-Institut Armand-Frappier. Blood from healthy human volunteers was collected into sodium citrate-buffered vacutainers. Blood donations were obtained from informed and consenting individuals according to institutionally approved procedures. Red blood cells were pelleted (700 x g; 10 min), washed three times with 9 volumes of PBS by centrifugation (700 x g; 10 min), and then resuspended in PBS. […] PBS-incubated red blood cells were considered as negative control and maximum lysis of erythrocytes was obtained by incubating the cells with 0.1% (v/v) Triton X-100. At the end of the incubation period, cells were pelleted (700 x g, 10 min) and 100 μL of each supernatant was used to evaluate the release of hemoglobin by measuring the absorbance at 545 nm. Results were obtained from 3 independent experiments performed in triplicate.

[10] = tested on: Staphylococcus aureus (Newman); settings: 20 h
[11] = tested on: Pseudomonas fluorescens (MF37); settings: 20 h
[12] = tested on: Pseudomonas aeruginosa (ATCC33350-Sero-2); settings: ATCC33350, 20 h
[13] = tested on: Serratia marcescens (ATCC14756); settings: ATCC14756, 20 h
[14] = tested on: Burkholderia cenocepacia (K56-2); settings: 20 h
[15] = tested on: Pseudomonas aeruginosa (PA14); settings: PA14, 20 h
Bacillus subtilis (2597) = settings: 2597, 20 h
[16] = tested on: Burkholderia thailendensis (ATCC700388); settings: CLSI microdilution, MHB, 37 °C, 20h, OD read-out; at least triplicate
[17] = tested on: Bacillus circulans (LSPQ3543); settings: 20 h
[18] = tested on: Burkholderia cenocepacia (LMG19240); settings: CLSI microdilution, MHB, 37 °C, 20h, OD read-out; at least triplicate
[19] = tested on: Actinobacillus pleuropneumoniae (4074); settings: 20 h
[20] = tested on: various bacterial strains; settings: CLSI microdilution
human VPAC2 receptor = target: T1, human VPAC2 receptor (Homo sapiens, UniProt P41587); assay: Radioligand binding assay, 125I-Ac-PACAP27; settings: CHO cells expressing human VPAC2, 0.05 nM 125I-Ac-PACAP27, 2h, room temperature
T1 construct: expressed in transfected cells
T1 sequence (P41587 24-438): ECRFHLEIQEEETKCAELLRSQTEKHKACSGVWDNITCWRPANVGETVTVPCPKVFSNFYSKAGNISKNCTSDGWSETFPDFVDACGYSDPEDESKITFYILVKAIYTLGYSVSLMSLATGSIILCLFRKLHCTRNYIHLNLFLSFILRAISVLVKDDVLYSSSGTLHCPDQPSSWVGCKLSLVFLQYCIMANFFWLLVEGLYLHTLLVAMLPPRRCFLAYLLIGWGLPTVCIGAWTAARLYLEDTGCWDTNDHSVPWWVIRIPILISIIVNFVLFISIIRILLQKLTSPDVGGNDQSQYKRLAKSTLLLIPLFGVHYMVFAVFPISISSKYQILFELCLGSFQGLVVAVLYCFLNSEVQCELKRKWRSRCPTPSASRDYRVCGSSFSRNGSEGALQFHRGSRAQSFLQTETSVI
Experimental: (§1) Chinese hamster ovary (CHO) cells stably and individually expressing human receptor PAC1, VPAC1 or VPAC2 were grown in Ham’s F12 medium supplemented with 10% of fetal bovine serum (FBS), 2 mM L-glutamine, 100 UI/mL of penicillin and streptomycin (P/S) and 400 μg/mL of G418. The cell line was maintained at 37 °C in a humidified atmosphere of 5% CO2 and passages were performed by trypsinization when cells reached about 80% confluence.
(§2) Acetylated PACAP27 was radioiodinated using the chloramine-T oxidation technique and purified on a Sep-Pak C18 cartridge (Waters, Milford, MA, USA). Binding assays were performed using CHO cells stably transfected with the human PAC1, VPAC1 or VPAC2 receptor isoform. Cells were seeded at a density of 150,000 cells/well in 24-well plates. The next day, cells were washed with binding buffer (0.1% BSA, 25 mM Tris–HCl, 25 mM MgCl2, pH 7.4) for 10 min at room temperature. The solution was replaced with a fresh solution containing 0.05 nM of ^125I-Ac-PACAP27 and increasing concentrations of peptide (10^−14 to 10^-5M). After 2h of incubation at room temperature, cells were washed twice with the binding buffer and then lysed with sodium hydroxide (0.1 M). Cell-bound radioactivity was quantified using a γ-counter. Results were expressed as percentage of specific binding of ^125I-Ac-PACAP27.

human VPAC1 receptor = target: T2, human VPAC1 receptor (Homo sapiens, UniProt P32241); assay: Radioligand binding assay, 125I-Ac-PACAP27
T2 construct: expressed in transfected cells
T2 sequence (P32241 31-457): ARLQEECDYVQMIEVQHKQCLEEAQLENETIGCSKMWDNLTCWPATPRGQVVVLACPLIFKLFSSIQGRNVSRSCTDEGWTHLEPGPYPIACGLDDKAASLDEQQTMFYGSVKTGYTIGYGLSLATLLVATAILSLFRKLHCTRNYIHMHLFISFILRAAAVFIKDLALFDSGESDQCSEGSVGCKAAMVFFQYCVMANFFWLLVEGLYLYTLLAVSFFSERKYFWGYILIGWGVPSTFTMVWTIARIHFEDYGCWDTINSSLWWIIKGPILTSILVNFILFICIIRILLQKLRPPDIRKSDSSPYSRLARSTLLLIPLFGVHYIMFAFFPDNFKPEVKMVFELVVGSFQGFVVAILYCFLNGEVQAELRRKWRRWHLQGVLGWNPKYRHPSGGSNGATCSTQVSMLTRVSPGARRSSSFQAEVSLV
Experimental: as §1, §2

human PAC1 receptor = target: T3, human PAC1 receptor (Homo sapiens, UniProt P41586); assay: Radioligand binding assay, 125I-Ac-PACAP27
T3 construct: expressed in transfected cells
T3 sequence (P41586 21-468): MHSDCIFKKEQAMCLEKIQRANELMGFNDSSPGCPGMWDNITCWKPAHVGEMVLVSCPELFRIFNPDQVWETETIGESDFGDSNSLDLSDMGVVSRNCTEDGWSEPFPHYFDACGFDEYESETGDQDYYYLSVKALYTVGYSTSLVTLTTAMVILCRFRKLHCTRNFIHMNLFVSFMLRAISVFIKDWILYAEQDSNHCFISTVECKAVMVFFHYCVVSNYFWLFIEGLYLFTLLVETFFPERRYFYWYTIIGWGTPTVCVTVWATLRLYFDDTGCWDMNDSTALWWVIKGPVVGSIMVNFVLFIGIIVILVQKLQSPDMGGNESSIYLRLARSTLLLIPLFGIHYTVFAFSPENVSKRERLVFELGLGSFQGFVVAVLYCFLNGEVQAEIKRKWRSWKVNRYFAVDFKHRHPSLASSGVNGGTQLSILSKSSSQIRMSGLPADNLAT

SMILES | MIC, Bacillus amyloliquefaciens [1] | MIC, Burkholderia cenocepacia (J2315) [2] | MIC, Bacillus velezensis (Bacillus velezensis) | MIC, Bacillus subtilis (PY79) (Bacillus subtilis (PY79)) | MIC, Pseudomonas putida (KT2440) [5] | MIC, Staphylococcus aureus (ATCC6538#P) [6] | MIC, Bacillus cereus (ATCC11778) [9] | MIC, Escherichia coli (JM109) (Escherichia coli (JM109)) | Haemolytic activity (Red blood cells) | MIC, Staphylococcus aureus (Newman) [10] | MIC, Pseudomonas fluorescens (MF37) [11] | MIC, Serratia marcescens (ATCC14756) [13] | MIC, Pseudomonas aeruginosa (PA14) [15] | MIC, Burkholderia thailendensis (ATCC700388) [16] | MIC, Bacillus circulans (LSPQ3543) [17] | MIC, Actinobacillus pleuropneumoniae [19] | further results
CC[C@H](C)[C@H](NC(=O)CNC(=O)[C@H](CC(=O)O)NC(=O)[C@H](CO)NC(=O)[C@@H](N)Cc1cnc[nH]1)C(=O)N[C@@H](Cc1ccccc1)C(=O)N[C@H](C(=O)N[C@@H](CC(=O)O)C(=O)N[C@@H](CO)C(=O)N[C@@H](Cc1ccc(O)cc1)C(=O)N[C@@H](CO)C(=O)N[C@@H](CCCNC(=N)N)C(=O)N[C@@H](Cc1ccc(O)cc1)C(=O)N[C@@H](CCCNC(=N)N)C(=O)N[C@@H](CCCCN)C(=O)N[C@@H](CCC(N)=O)C(=O)N[C@@H](CCSC)C(=O)N[C@@H](C)C(=O)N[C@H](C(=O)N[C@@H](CCCCN)C(=O)N[C@@H](CCCCN)C(=O)N[C@@H](Cc1ccc(O)cc1)C(=O)N[C@@H](CC(C)C)C(=O)N[C@@H](C)C(=O)N[C@@H](C)C(=O)N[C@H](C(=O)N[C@@H](CC(C)C)C(=O)NCC(=O)N[C@@H](CCCCN)C(=O)N[C@@H](CCCNC(=N)N)C(=O)N[C@@H](Cc1ccc(O)cc1)C(=O)N[C@@H](CCCCN)C(=O)N[C@@H](CCC(N)=O)C(=O)N[C@@H](CCCNC(=N)N)C(=O)N[C@H](C(=O)N[C@@H](CCCCN)C(=O)N[C@@H](CC(N)=O)C(=O)N[C@@H](CCCCN)C(N)=O)C(C)C)C(C)C)C(C)C)[C@@H](C)O [compound 1, PACAP38] | 42 µg/mL (≈ 9.26 µM) | 10 µg/mL (≈ 2.21 µM) | 76 µg/mL (≈ 16.8 µM) | 28 µg/mL (≈ 6.18 µM) | 113 µg/mL (≈ 24.9 µM) | >200 µg/mL | >200 µg/mL | >200 µg/mL | do not exert a very significant haemolytic activity | >200 µg/mL | >200 µg/mL | >200 µg/mL | >200 µg/mL | >200 µg/mL | 94 µg/mL (≈ 20.7 µM) | 7.5 µg/mL (≈ 1.65 µM) | MIC, Escherichia coli ATCC25922 [3]: >200 µg/mL; MIC, Escherichia coli (O157 :H7) [4]: >200 µg/mL; MIC, Burkholderia cenocepacia (CEP0511 Gvar3b) [7]: >200 µg/mL; MIC, Burkholderia cenocepacia (LMG18829) [8]: >200 µg/mL; MIC, Pseudomonas aeruginosa (ATCC33350-Sero-2) [12]: >200 µg/mL; MIC, Burkholderia cenocepacia (K56-2) [14]: >200 µg/mL; MIC, Bacillus subtilis (2597) (Bacillus subtilis (2597)): >200 µg/mL; MIC, Burkholderia cenocepacia (LMG19240) [18]: >200 µg/mL
CC[C@H](C)[C@H](NC(=O)CNC(=O)[C@H](CC(=O)O)NC(=O)[C@H](CO)NC(=O)[C@@H](N)Cc1c[nH]cn1)C(=O)N1Cc2ccccc2C[C@H]1C(=O)N[C@H](C(=O)N[C@@H](CC(=O)O)C(=O)N[C@@H](CO)C(=O)N[C@@H](Cc1ccc(O)cc1)C(=O)N[C@@H](CO)C(=O)N[C@@H](CCCNC(=N)N)C(=O)N[C@@H](Cc1ccc(O)cc1)C(=O)N[C@@H](CCCNC(=N)N)C(=O)N[C@@H](CCCCN)C(=O)N[C@@H](CCC(N)=O)C(=O)N[C@@H](CCSC)C(=O)N[C@@H](C)C(=O)N[C@H](C(=O)N[C@@H](CCCCN)C(=O)N[C@@H](CCCCN)C(=O)N[C@@H](Cc1ccc(O)cc1)C(=O)N[C@@H](CC(C)C)C(=O)N[C@@H](C)C(=O)N[C@@H](C)C(=O)N[C@H](C(=O)N[C@@H](CC(C)C)C(N)=O)C(C)C)C(C)C)[C@@H](C)O [compound 8, [Tic^6]PACAP27] | >160 µg/mL | >160 µg/mL | >160 µg/mL | >160 µg/mL | >160 µg/mL | >160 µg/mL | >160 µg/mL | >160 µg/mL | – | >160 µg/mL | >160 µg/mL | >160 µg/mL | >160 µg/mL | >160 µg/mL | >160 µg/mL | >160 µg/mL | MIC (ability to reduce bacterial growth, tested strains) [20]: > 160 µg/mL
CSCC[C@H](NC(=O)[C@H](CCC(N)=O)NC(=O)[C@H](CCCCN)NC(=O)[C@H](CCCN=C(N)N)NC(=O)[C@H](Cc1ccc(O)cc1)NC(=O)[C@H](CCCN=C(N)N)NC(=O)[C@H](CO)NC(=O)[C@H](Cc1ccc(O)cc1)NC(=O)[C@@H](N)CO)C(=O)N[C@@H](C)C(=O)N[C@H](C(=O)N[C@@H](CCCCN)C(=O)N[C@@H](CCCCN)C(=O)N[C@@H](Cc1ccc(O)cc1)C(=O)N[C@@H](CC(C)C)C(=O)N[C@@H](C)C(=O)N[C@@H](C)C(=O)N[C@H](C(=O)N[C@@H](CC(C)C)C(=O)NCC(=O)N[C@@H](CCCCN)C(=O)N[C@@H](CCCN=C(N)N)C(=O)N[C@@H](Cc1ccc(O)cc1)C(=O)N[C@@H](CCCCN)C(=O)N[C@@H](CCC(N)=O)C(=O)N[C@@H](CCCN=C(N)N)C(=O)N[C@H](C(=O)N[C@@H](CCCCN)C(=O)N[C@@H](CC(N)=O)C(=O)N[C@@H](CCCCN)C(N)=O)C(C)C)C(C)C)C(C)C [compound 10, PACAP(9–38)] (H-SYSRYRKQMAVKKYLAAVLGKRYKQRVKNK-NH2) | – | – | – | – | – | – | – | – | do not exert a very significant haemolytic activity | – | – | – | – | – | – | – | IC50 (human VPAC2 receptor; 95% confidence limits in parentheses): > 1000 nM; IC50 (human VPAC2 receptor; read-out: VPAC2 pIC50 (converted)): 1700 nM; IC50 (human VPAC1 receptor): > 1000 nM; IC50 (human VPAC1 receptor; VPAC1 pIC50, CHO cells expressing human VPAC1, 0.05 nM 125I-Ac-PACAP27, 2h, room temperature): 5130 nM; IC50 (human PAC1 receptor): > 1000 nM; IC50 (human PAC1 receptor; PAC1 pIC50, CHO cells expressing human PAC1, 0.05 nM 125I-Ac-PACAP27, 2h, room temperature): 1350 nM
